“And” between values parts separate entries of the source, which are not always exact repeats. Equal entries are not always repeated.
What was measured:
[1] = test system: neonatal mouse cardiac myocytes; format: cell-based; settings: DOX 0.5–5 μM with 1 μM sildenafil
Method: Neonatal mouse myocytes in culture are incubated with 0.5–5 μM of DOX (in the presence or absence of 1 μM sildenafil) for 18 hours. The cells are then incubated with drug free growth medium for an additional 24 hours. Cytotoxicity of DOX is quantitatively assessed by measuring the percentage of cells killed and the amount of creatine kinase (CK) released into the media. In addition, a trypan blue exclusion assay and propidium iodide nuclear stain are used to quantitate cell death. Since DOX induces cardiomyopathy through the release of reactive oxygen species, lipid peroxidation in the cells is also measured as an index of oxidative damage.
Neonatal mouse cardiac myocyte cultures are used for membrane potential studies. Cells in culture are treated with 0.5–5 μM of DOX (in the presence or absence of 1 μM sildenafil) for 18 hours. The cells are then incubated with drug free growth medium for an additional 24 hours. Additional groups are included where the cells are treated with a mitoKATP channel blocker (5-hydroxydecanoate, 100 μM), surface channel blocker (HMR1098, 30 μM) or cyclosporine, a mitochondrial membrane potential (Ψm) blocker (5 μM). For assessment of apoptosis, the TUNEL assay is used, which is an accurate method for distinguishing apoptosis from necrosis by specifically detecting DNA cleavage and chromatin condensation characteristic of apoptosis. Additionally, positive TUNEL staining directly correlates with the more typical biochemical and morphological aspects of apoptosis. Since an understanding of cell morphology is critical for data interpretation, apoptotic morphology is simultaneously assessed according to accepted scientific criteria previously described (Nor-Avi, 1999). The in situ staining of DNA strand breaks detected by the TUNEL assay along with subsequent morphological observation via epifluorescent, confocal, and electron microscopy, provides significant and reliable data regarding the identification of apoptotic cells, even in tissue samples where apoptosis represents a small segment of the population (Manning 1994). In addition, several other key indicators of apoptosis including annexin-V, cytosolic cytochrome c, caspase 3, caspase 8, as well as poly (ADP-ribose) polymerase cleavage in these groups, are measured. Mitochondrial membrane potential (Ψm) using a fluorescent indicator probe, JC-1 (Molecular Probes, Eugene, Oreg.) is measured.

[2] = test system: mouse heart, global I-R injury; test: Isolated perfused mouse heart (Langendorff), 20 min global ischemia and 30 min reperfusion after in vivo treatment
Method: (§1) Adult male outbred ICR mice were supplied by Harlan Inc (Indianapolis, Ind.). Viagra pills (Pfizer Inc) were ground into powder and dissolved in saline. The drug solution was filtered (0.45-μm pore size) before intraperitoneal injection. 1400W, an iNOS inhibitor, was obtained from Alexis. We used an isolated perfused mouse heart model subjected to 20 minutes of global ischemia and 30 minutes of reperfusion (Langendorff mode). Myocardial I-R injury was assessed by measuring infarct size, contractile function, and coronary flow as described previously (Xi, 1999). Twenty-eight mice were randomized into the following 4 groups: (n=6 to 9 per group): (1) saline (0.15 mL IP), (2) sildenafil (0.7 mg/kg IP, equivalent to 50 mg Viagra pill used for patients with erectile dysfunction, given 24 hours before I-R), (3) sildenafil+1400W (10 mg/kg IP, 14 given 30 minutes before I-R), and (4) saline+1400W. Measurement of NOS Isoforms Mice were treated with sildenafil (0.7 mg/kg IP), and their hearts were removed at 15, 30, and 45 minutes and 1, 2, 3, 4, and 24 hours after injection (n=3 per group). Three nontreated hearts were used as controls. Tissue samples were ground under liquid nitrogen and homogenized with TRI Reagent (Molecular Research Center) for extracting total RNA, which was reverse-transcribed into cDNA at 50° C. for 30 minutes using a OneStep reverse transcription (RT)-polymerase chain reaction (PCR) kit from Qiagen. The oligonucleotide primers were synthesized on the basis of published sequences for murine iNOS, eNOS, and GAPDH15 (Integrated DNA Technology). The RT-PCR products were electrophoresed on 1.5% Trisacetate-EDTA agarose gel. The target bands were identified on the basis of their specific size using DNA standards. iNOS and eNOS proteins were measured by Western blots as described previously. 13 In brief, triplicate heart samples were collected 24 hours after saline or sildenafil injection and homogenized in ice-cold RIPA buffer (Upstate Biotechnology). The homogenate was centrifuged at 10,000 g for 10 minutes at 4° C., and supernatant was recovered as the total cellular protein. Total protein (60 μg) from each sample was separated by SDS-PAGE on 10% acrylamide gels, transferred to a polyvinylidine difluoride membrane, and then blocked with 5% nonfat dry milk in Tris-buffered saline. The membrane was subsequently incubated with a rabbit polyclonal antibody (dilution 1:500, Santa Cruz) reacting specifically to iNOS, eNOS, or actin. The secondary antibody was a horseradish peroxidase-conjugated anti-rabbit IgG (1:1000 dilution, Amersham). The membranes were developed using enhanced chemiluminescence and exposed to x-ray film. The mRNA and protein expression were quantified by scanning each of the RT-PCR or Western blot band using a densitometer (Bioquant 98). […]

[3] = test system: rabbit heart, ischemia/reperfusion injury; test: In situ rabbit model of myocardial infarction (30 min coronary occlusion, 180 min reperfusion), infarct size by TTC staining; format: in vivo; settings: for reduction of infarct size vs saline control: 0.7 mg/kg IV
iNOS = test: Cardiac iNOS mRNA (RT-PCR) and protein (Western blot) expression after treatment; format: in vivo, mouse; settings: 0.7 mg/kg IP
Method: as §1, with “13 In brief, triplicate heart samples were collected 24 hours after saline or sildenafil injection and homogenized in ice-cold RIPA buffer (Upstate Biotechnology). The homogenate was centrifuged at 10,000 g for 10 minutes at 4° C., and supernatant was recovered as the total cellular protein. Total protein (60 μg) from each sample was separated by SDS-PAGE on 10% acrylamide gels, transferred to a polyvinylidine difluoride membrane, and then blocked with 5% nonfat dry milk in Tris-buffered saline. The membrane was subsequently incubated with a rabbit polyclonal antibody (dilution 1:500, Santa Cruz) reacting specifically to iNOS, eNOS, or actin. The secondary antibody was a horseradish peroxidase-conjugated anti-rabbit IgG (1:1000 dilution, Amersham). The membranes were developed using enhanced chemiluminescence and exposed to x-ray film.” left out

[4] = 0.7 mg/kg IP 24 hours before I-R

In the case of CCCc1nn(C)c2c(=O)[nH]c(-c3cc(S(=O)(=O)N4CCN(C)CC4)ccc3OCC)nc12 [sildenafil], the “effect on DOX-induced apoptosis indicators” value [1] is reported as “aborted”, the “effect on DOX-induced parameters of injury (CK release, trypan blue uptake, lipid hydroperoxides)” value [1] is reported as “reversed” and the “preischemic or postischemic coronary flow” value [2, 4] is reported as “did not alter”. The “ventricular contractile function (stunning)” value [2, 4] was “not associated with compromised ventricular contractile function”, the infarct size ([2]; sildenafil 0.7 mg/kg IP 24 hours before I-R) was 6.9±1.2% and the infarct size ([3]; 0.1 mg/kg, 30 minutes prior to ischemia) was 17.05%. For the same molecule, the infarct size ([3]; 0.2 mg/kg, 30 minutes prior to ischemia) was 13.53±1.24, the “infarct limiting effect at lower doses (0.2 and 0.1 mg/kg) versus the 0.7 mg/kg dose” value ([3]; 30 minutes prior to ischemia) was “comparable” and the “reduction of infarct size vs saline control” value ([3]; acute phase, 0.7 mg/kg) was 68% and 67%. The infarct size ([3]; acute phase: sildenafil 0.7 mg/kg IV 30 min prior to ischemia/reperfusion) was 10.8±0.9 % of risk area, the “reduction of infarct size vs saline control” value ([3]; delayed phase) was 41% and the infarct size ([3]; delayed phase: sildenafil 0.7 mg/kg IV 24 hrs prior to ischemia/reperfusion) was 19.9±2.0 % of risk area. For the same molecule, the infarct size ([3]; total dose 0.7 mg/kg infused from 25 min of ischemia into reperfusion for 1 hr, 0.7 mg/kg) was 18.37±2.42, the infarct size ([3]; total dose 0.7 mg/kg infused from 25 min of ischemia into reperfusion for 1 hr, listed as Sildenafil, 0.7 mg/kg) was “significant reduction in the infarct size” and the “iNOS mRNA and protein expression” value (iNOS) was “increase”. The “magnitude of increase, iNOS compared with eNOS” value (iNOS) was “much higher for iNOS” and the “time of peak iNOS mRNA level” value (iNOS) was 2 h.

From patent publication US7091207B2, “Method of treating myocardial infarction with PDE-5 inhibitors” (Virginia Commonwealth University, priority 2002, dated 2006)
